Patent publication US9505710B2 (priority 2015, dated 2016)

Biological target: BoNT/A LC1-429 (Clostridium botulinum, UniProt P0DPI1)
Assay: biochemical
Conditions: BoNT/A Ki (nM)

Chain of BoNT/A LC1-429 (P0DPI1 1-429, added parts left off): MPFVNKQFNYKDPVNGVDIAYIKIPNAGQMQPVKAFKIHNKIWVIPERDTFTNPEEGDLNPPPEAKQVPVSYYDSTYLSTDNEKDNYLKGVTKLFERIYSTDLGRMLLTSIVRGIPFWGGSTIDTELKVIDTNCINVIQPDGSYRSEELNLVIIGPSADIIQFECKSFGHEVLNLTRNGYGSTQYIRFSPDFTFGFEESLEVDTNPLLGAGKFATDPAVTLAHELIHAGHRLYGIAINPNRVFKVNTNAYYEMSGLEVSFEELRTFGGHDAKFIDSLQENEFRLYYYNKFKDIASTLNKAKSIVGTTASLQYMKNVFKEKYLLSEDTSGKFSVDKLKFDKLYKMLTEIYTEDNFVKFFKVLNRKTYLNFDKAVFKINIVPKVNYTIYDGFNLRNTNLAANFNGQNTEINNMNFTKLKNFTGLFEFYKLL

Structure (SMILES)	Ki [nM]
CO[C@H](CC(=O)NO)[C@H](Cc1ccc(F)cc1)c1ccc(Br)cc1 [Example 1-3, (3R,4R)-4-(4-bromophenyl)-5-(4-fluorophenyl)-N-hydroxy-3-methoxypentanamide]	9.36
CCO[C@H](CC(=O)NO)[C@H](Cc1ccc(CO)cc1)c1ccc(F)cc1 [Example 1-9, (3R,4R)-3-ethoxy-4-(4-fluorophenyl)-N-hydroxy-5-(4-(hydroxymethyl)phenyl)pentanamide]	299
CO[C@H](CC(=O)NO)[C@H](Cc1ccc(F)cc1C)c1ccc(Br)cc1 [Example 2-1, (3R,4R)-4-(4-bromophenyl)-5-(4-fluoro-2-methylphenyl)-N-hydroxy-3-methoxypentanamide]	235
CO[C@H](CC(=O)NO)[C@H](Cc1ccc(F)c(C)c1)c1ccc(Br)cc1 [Example 2-2, (3R,4R)-4-(4-bromophenyl)-5-(4-fluoro-3-methylphenyl)-N-hydroxy-3-methoxypentanamide]	3.4
CO[C@@H](CC(=O)NO)[C@H](Cc1ccc(F)cc1C)c1ccc(Br)cc1 [Example 2-3, (3S,4R)-4-(4-bromophenyl)-5-(4-fluoro-2-methylphenyl)-N-hydroxy-3-methoxypentanamide]	4860
CO[C@@H](CC(=O)NO)[C@H](Cc1ccc(F)c(C)c1)c1ccc(Br)cc1 [Example 2-4, (3S,4R)-4-(4-bromophenyl)-5-(4-fluoro-3-methylphenyl)-N-hydroxy-3-methoxypentanamide]	145
CCO[C@H](CC(=O)NO)[C@H](Cc1ccc(Cl)cc1)c1ccccc1 [Example 3-1, (3R,4R)-5-(4-chlorophenyl)-3-ethoxy-N-hydroxy-4-phenylpentanamide]	15.5
O=C(CC[C@H](Cc1ccc(Cl)cc1)c1ccccc1)NO [Example 3-2]	2700
O=C(CC[C@H](Cc1ccc(Cl)cc1)c1ccc(Br)cc1)NO [Example 3-3]	915
CO[C@H](CC(=O)NO)[C@H](Cc1ccc(Cl)cc1)c1ccc(Cl)cc1 [Example 3-4, (3R,4R)-4,5-bis(4-chlorophenyl)-N-hydroxy-3-methoxypentanamide]	4.8
CO[C@H](CC(=O)NO)[C@H](Cc1ccc(Cl)cc1)c1ccc(F)cc1 [Example 3-5, (3R,4R)-5-(4-chlorophenyl)-4-(4-fluorophenyl)-N-hydroxy-3-methoxypentanamide]	5.2
CCO[C@H](CC(=O)NO)[C@H](Cc1ccc(Cl)cc1)c1ccc(Br)cc1 [Example 3-6, (3R,4R)-4-(4-bromophenyl)-5-(4-chlorophenyl)-3-ethoxy-N-hydroxypentanamide]	2 ± 0.42
CCO[C@@H](CC(=O)NO)[C@H](Cc1ccc(Cl)cc1)c1ccc(Br)cc1 [Example 3-7, (3S,4R)-4-(4-bromophenyl)-5-(4-chlorophenyl)-3-ethoxy-N-hydroxypentanamide]	73
CO[C@H](CC(=O)NO)[C@H](Cc1ccc(Cl)cc1)c1ccc(Br)cc1 [Example 3-8, (3R,4R)-4-(4-bromophenyl)-5-(4-chlorophenyl)-N-hydroxy-3-methoxypentanamide]	1.75
C=Cc1ccc([C@@H](Cc2ccc(Cl)cc2)[C@@H](CC(=O)NO)OCC)cc1 [Example 3-9, (3R,4R)-5-(4-chlorophenyl)-3-ethoxy-N-hydroxy-4-(4-vinylphenyl)pentanamide]	3.2
CCO[C@H](CC(=O)NO)[C@H](Cc1ccc(Cl)cc1)c1ccc(CO)cc1 [Example 3-10, (3R,4R)-5-(4-chlorophenyl)-3-ethoxy-N-hydroxy-4-(4-(hydroxymethyl)phenyl)pentanamide]	2.7
CO[C@H](CC(=O)NO)[C@H](Cc1ccc(Cl)cc1)c1ccc(CO)cc1 [Example 3-11, (3R,4R)-5-(4-chlorophenyl)-N-hydroxy-4-(4-(hydroxymethyl)phenyl)-3-methoxypentanamide]	9.7
CCO[C@H](CC(=O)NO)[C@H](Cc1ccc(Cl)cc1)c1ccc(C2(C)CO2)cc1 (stereo partly drawn) [Example 3-12, (3R,4R)-5-(4-chlorophenyl)-3-ethoxy-N-hydroxy-4-(4-(2-methyloxiran-2-yl)phenyl)pentanamide]	9.6
